Measured values reported in article PMC11816975, “Bioactive Peptides from Milk Proteins with Antioxidant, Anti-Inflammatory, and Antihypertensive Activities” (Foods, 2025).
In brackets after ≈: the same amount, converted by molar mass. One block for each compound: values may come before it. Where no end group is shown, it is not given here.

How the values were obtained:
[1] = DPPH• radical scavenging assay; conditions: relative concentration to reduce 50% of initial DPPH•; mean ± SD, n = 3
Description: The free radical-scavenger activity was determined by the DPPH^• assay, according to Oliveira et al.. Briefly, in a 96 well-plate, 19.4 µL of aqueous solutions of the peptides at different concentrations (100–0.1 µg/mL) was added per well. Then, 175 µL of an ethanolic solution of 2,2-diphenyl-1-picrylhydrazyl radical (DPPH^•, Merck) was added to the wells ([…]—90 µM for final concentration in the experiment). The absorbance was read at 515 nm (Multiskan SkyHigh multiplate reader, Thermo Fisher Scientific) in kinetic mode for 60 min and at room temperature. The percentage of remaining DPPH^• was plotted against the peptides’ concentrations and the amount of test compounds necessary to decrease by 50% the initial concentration of DPPH (RIC50) was calculated (GraphPad Prism 9.4.0, GraphPad Software). Quercetin (100–0.1 µg/mL in ethanol) was used as a positive control.
The DPPH^• radical scavenging activity determines the ability of an antiradical compound to neutralize DPPH^• radical to its reduced form (DPPH-H) and is usually expressed as the concentration of the compound required to reduce the DPPH^• radical by 50% (IC₅₀). […]

[2] = FRAP (ferric reducing antioxidant power) assay
Description: The antioxidant power of a given compound is not limited to its radical-scavenging activity. In fact, the ferric reducing antioxidant power (FRAP) assay, is a well-established test to measure a compound’s ability to act as a reductant in a colorimetric redox reaction, where ferric (Fe^3+) ions are reduced to the ferrous (Fe^2+) state in the acidic medium.
The ferric-reducing antioxidant power (FRAP) was determined using a FRAP kit (Sigma-Aldrich) with minor modifications to the manufacturer’s instructions. Briefly, in a 96-well plate, 5 µL of peptides’ aqueous solutions at different concentrations (50–0.05 µg/mL) was added per well. Then, 95 µL of the reaction cocktail (FRAP assay buffer, FeCl3 solution, and FRAP probe) was added to each well. The absorbance was measured at 594 nm in kinetic mode (Multiskan SkyHigh, Thermo Fisher Scientific) for 60 min, at 37 °C. A ferrous standard curve was plotted with Ferrous ammonium sulfate at 0, 4, 8, 12, 16, and 20 nmol/well, and the absorbances of each sample were compared to the standard curve. Quercetin (100–0.1 µg/mL in ethanol) was used as a positive control. All measurements were performed in three independent experiments. Data are shown as mean ± SD.

in vitro = format: cell-based, murine; conditions: for IC50 at 24 h: mouse
Description: RAW 264.7 (ATCC TIB-71) murine macrophage-like cells were cultured in high-glucose Dulbecco’s modified Eagle’s medium (DMEM, Sigma-Aldrich) supplemented with 10% fetal bovine serum (FBS, Corning) and 1% penicillin/streptomycin (Corning). Cells were grown under standard culture conditions in a 5% CO2 incubator at 37 °C (MCO-170AC incubator; PHC Corporation, Tokyo, Japan), and were sub-cultured every two or three days when it was noticed that the cells had reached around 80% confluence. The assays were performed in cell passages from passages 9 to 21 to avoid phenotypic and genetic instability. Unless otherwise stated, all treatments were carried out with DMEM supplemented with 1% penicillin/streptomycin only (serum-free conditions). The cytotoxicity of the peptides towards RAW 264.7 cells was evaluated using the colorimetric 3-(4,5-dimethylthiazol-2-yl)-2,5-diphenyl tetrazolium bromide (MTT) assay. The assay was performed according to Mosmann, with a few modifications. Briefly, cells were seeded in a 96-well plate at a density of 2.5 × 10^3 cells per well and incubated for 24 h (5% CO2, 37 °C). After the incubation period, the medium was removed and replaced with different concentrations of the peptides’ aqueous solutions diluted in fresh FBS-free DMEM to the final concentrations of 1–0.005 mg/mL in each well. Following another 24 h incubation period, 10 µL of a 5 mg/mL stock solution of 3-(4,5-Dimethylthiazol-2-yl)-2,5-diphenyltetrazolium bromide (MTT; Alfa Aesar) was added to each well, and the plate was incubated for 3 h (5% CO2, 37 °C). Dimethyl sulfoxide (DMSO, Thermo Fisher Scientific) was used to dissolve the formazan crystals formed by the intracellular reduction of MTT. The absorbance was measured at a dual wavelength of 570/690 nm using a Multiskan SkyHigh microplate reader (Thermo Fisher Scientific). The percentage of viable cells was calculated and the concentration of each peptide able to inhibit 50% of cell viability (IC50) was determined. The experiments were carried out in three independent assays, and the results are shown as mean ± standard deviation (SD).

[3] = system: O2•− production in LPS-stimulated RAW 264.7 cells; experiment: Intracellular superoxide production (NBT assay) in LPS-stimulated macrophages; format: cell-based, murine; conditions: at 10 µg/mL
Description: Considering the link between oxidative stress and inflammation, both the antioxidant and the anti-inflammatory potential of the selected peptides was determined in cellulo using macrophage-like cells (RAW 264.7 cell line) stimulated with lypopolysaccharides (LPSs) from Escherichia coli. […] In other words, RAW 264.7 cells are activated by foreign stimuli like, e.g., exposure to LPSs. This activation is initiated by the binding of LPSs to cell membrane receptors, which triggers signaling pathways that will result in the generation of proinflammatory mediators (e.g., nitric oxide) and cytokines such as interleukin (IL)-6, IL-8, tumor necrosis factor-alpha (TNF)-α [41, 42]. Since proinflammatory mediators are held in several metabolic pathways, including the production of reactive oxygen species (ROS), e.g., the radical-anion superoxide (O2^•−), LPS exposure also leads to oxidative stress. […]
The potential inhibitory effect of the peptides on superoxide radical (O2^−) by RAW 264.7 cells activated by LPS (1 µg/mL) was evaluated according to Mitra et al. with some modifications. […] The absorbance was measured in a microplate reader at a dual wavelength of 620/700 nm. […] The experiments were performed in three independent assays and the results were expressed as a percentage of O2^- production. […]

[4] = system: NO production in LPS-stimulated RAW 264.7 cells; experiment: Griess assay (nitric oxide production) in LPS-stimulated macrophages; format: cell-based, murine; conditions: at 10 µg/mL
From the text: The Griess assay is a classical indirect method to measure the production of nitric oxide through the quantification of nitrite anions. As previously mentioned, NO is an inflammatory biomarker that can be produced when LPS-activated macrophages produce proinflammatory mediators and cytokines, which in turn elicit the production of reactive species like ROS and the expression/activity of relevant enzymes, including the nitric oxide synthase (NOS).
The Nitrite Assay Kit (Griess Reagent, Sigma-Aldrich) was used to determine the influence of peptide treatments on nitric oxide production by RAW 264.7 cells activated by LPS (1 µg/mL). To this end, peptide solutions at different concentrations (50–3.12 µg/mL—serial dilution) in an FBS-free medium were used. Briefly, 7 × 10^4 RAW 264.7 cells per well were seeded in a 96-well plate and incubated for 24 h (5% CO2, 37 °C). On the next day, the medium was removed and replaced with different concentrations of the peptides. After another 24 h incubation period (5% CO2, 37 °C), 50 µL of culture supernatant was transferred to a 96-well plate. […] The absorbance was measured at 540 nm using a microplate reader (Multiskan SkyHigh, Thermo Scientific) A nitrite standard curve was plotted with nitrite standards at 0, 2, 4, 8, and 10 nmol/well, and the absorbances of each sample were compared to the standard curve. […]

ACE-1 enzyme = ACE-1 enzyme (Homo sapiens, UniProt P12821); experiment: ACE-1 inhibition assay (colorimetric kit)
ACE-1 enzyme, sequence (P12821 30-1306): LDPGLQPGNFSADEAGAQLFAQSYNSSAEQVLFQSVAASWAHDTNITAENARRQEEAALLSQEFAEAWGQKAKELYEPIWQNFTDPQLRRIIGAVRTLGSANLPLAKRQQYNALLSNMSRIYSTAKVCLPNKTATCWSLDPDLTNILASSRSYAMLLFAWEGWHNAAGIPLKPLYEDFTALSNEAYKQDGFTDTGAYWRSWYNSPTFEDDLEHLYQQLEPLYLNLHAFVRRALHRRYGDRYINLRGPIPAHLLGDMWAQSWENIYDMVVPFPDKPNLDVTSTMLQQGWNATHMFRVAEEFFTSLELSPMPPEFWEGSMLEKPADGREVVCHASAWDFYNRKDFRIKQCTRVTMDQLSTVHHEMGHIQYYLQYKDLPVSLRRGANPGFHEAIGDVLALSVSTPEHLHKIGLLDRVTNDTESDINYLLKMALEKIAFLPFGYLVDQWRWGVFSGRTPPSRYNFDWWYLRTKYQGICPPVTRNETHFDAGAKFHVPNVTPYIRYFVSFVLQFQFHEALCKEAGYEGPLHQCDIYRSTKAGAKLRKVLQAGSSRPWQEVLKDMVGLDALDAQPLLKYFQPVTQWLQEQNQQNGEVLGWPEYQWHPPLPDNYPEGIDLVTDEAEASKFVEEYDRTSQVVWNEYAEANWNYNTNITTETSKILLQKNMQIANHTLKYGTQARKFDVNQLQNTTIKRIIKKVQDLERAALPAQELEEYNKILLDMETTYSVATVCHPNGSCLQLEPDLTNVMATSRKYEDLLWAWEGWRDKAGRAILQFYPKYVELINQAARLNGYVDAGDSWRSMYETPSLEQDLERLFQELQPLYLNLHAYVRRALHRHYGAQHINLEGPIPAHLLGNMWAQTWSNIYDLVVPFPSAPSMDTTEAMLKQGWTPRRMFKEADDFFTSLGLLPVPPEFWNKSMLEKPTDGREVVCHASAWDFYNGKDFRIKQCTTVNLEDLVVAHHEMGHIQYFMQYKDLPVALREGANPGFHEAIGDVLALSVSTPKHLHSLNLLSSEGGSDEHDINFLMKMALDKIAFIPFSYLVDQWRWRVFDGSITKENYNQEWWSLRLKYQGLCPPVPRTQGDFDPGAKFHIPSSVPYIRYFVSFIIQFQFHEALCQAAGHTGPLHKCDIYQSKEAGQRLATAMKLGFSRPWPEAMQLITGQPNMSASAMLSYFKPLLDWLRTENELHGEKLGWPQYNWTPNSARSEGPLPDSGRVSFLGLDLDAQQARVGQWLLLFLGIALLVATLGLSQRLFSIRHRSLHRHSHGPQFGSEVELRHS
Description: Therefore, the ability of the LF-derived peptides to inhibit ACE-1 was evaluated.
The activity of the ACE-1 enzyme was measured using a colorimetric ACE-1 Inhibitor Screening Kit (Abcam) with minor modifications to the manufacturer’s instructions. Briefly, in a 96-well plate, 12.5 µL of peptide’s aqueous solutions at different concentrations (100–0.1 µg/mL) were added per well. Then, 20 µL of diluted ACE-1 enzyme solution was added to each well. The total volume of each well was adjusted to 100 µL and the plate was incubated at 37 °C for 15 min. After the incubation period, 25 µL of the reaction mixture (substrate mixture and ACE-1 assay buffer) were added to the samples, and the absorbance was read in kinetic mode at 345 nm for 60 min at 37 °C (Multiskan SkyHigh, Thermo Scientific). Captopril (22 ng/mL) was used as the positive control. The reaction inhibition percentage was calculated and the IC50 was determined (GraphPad Prism 9.4.0, GraphPad Software). The experiments were carried out in three independent assays and the results are expressed as mean ± SD.

ACE-1 = conditions: cited from earlier work
[5] = system: spontaneously hypertensive rats; design: method as in PMID 16830788; conditions: cited from earlier work

Compound: O=c1c(O)c(-c2ccc(O)c(O)c2)oc2cc(O)cc(O)c12 [Quercetin]
DPPH Radical Scavenging Activity (RIC50 mol/mol DPPH) [1]: 0.09 ± 0.02 mol/mol DPPH
FRAP (mM Ferrous Equivalents) ([2]; 0.05 µg/mL): 0.85 ± 0.25 mM Ferrous Equivalents
FRAP (mM Ferrous Equivalents) ([2]; 0.5 µg/mL): 1.40 ± 0.23 mM Ferrous Equivalents
FRAP (mM Ferrous Equivalents) ([2]; 5 µg/mL): 8.02 ± 0.57 mM Ferrous Equivalents
FRAP (mM Ferrous Equivalents) ([2]; 50 µg/mL): 16.09 ± 0.87 mM Ferrous Equivalents
IC50 at 24 h (in vitro): 65 ± 2 µg/mL (≈ 215 µM)
reduction of O2•− production compared to the control (LPS +) [3]: about 25%
NO levels in LPS-activated cells [4]: significantly reduce NO levels

Compound: AKCAKFQRNMKKVRG-NH2 [aLF-17-31, AKCAKFQRNMKKVRG-NH2]
IC50 (ACE-1 enzyme): 31.2 µM

Compound: LRPVAA
ACE-1 inhibition in vitro (ACE-1): effective in inhibiting ACE-1 in vitro
blood pressure [5]: reducing blood pressure

Compound: WKLLSKAQEKFGKNKSR-NH2 [bLF-268-284, WKLLSKAQEKFGKNKSR-NH2]
IC50 (ACE-1 enzyme): > 48.8 µM

Continued, values first:

IC50 (in vitro): 135 ± 6 µg/mL (≈ 67.7 µM)
IC50 (ACE-1 enzyme): 31.6 µM
Compound: CSCC[C@H](NC(=O)[C@H](CCCNC(=N)N)NC(=O)[C@H](Cc1c[nH]c2ccccc12)NC(=O)[C@H](CCC(N)=O)NC(=O)[C@H](Cc1c[nH]c2ccccc12)NC(=O)[C@H](CCCNC(=N)N)NC(=O)[C@H](CCCNC(=N)N)NC(=O)[C@H](CS)NC(=O)[C@H](CCCCN)NC(=O)[C@@H](N)Cc1ccccc1)C(=O)N[C@@H](CCCCN)C(=O)N[C@@H](CCCCN)C(=O)N[C@@H](CC(C)C)C(=O)NCC(=O)N[C@@H](C)C(N)=O [bLF-17-31, FKCRRWQWRMKKLGA-NH2]

IC50 at 24 h (in vitro): 290 ± 5 µg/mL
Compound: APRKNVRWCTI-NH2 [bLF-1-11, APRKNVRWCTI-NH2]

IC50 at 24 h (in vitro): 355 ± 12 µg/mL
IC50 (ACE-1 enzyme): 57.5 µM
Compound: GRRRRSVQWCA-NH2 [rhLF-1-11, GRRRRSVQWCA-NH2]

IC50 (ACE-1 enzyme): 25.6 µM
Compound: WNLLRQAQEKFGKDKSP-NH2 [nhLF-268-284, WNLLRQAQEKFGKDKSP-NH2]
